Tests used:
Hippocampal neurons = assay: Neurite outgrowth in hippocampal neurons; type: cell-based, rat; settings: HC neurons, 48 hours, SEM in parentheses
Protocol: Hippocampal neurons: The hippocampi of gestational day 18 rat embryos were dissected out, incubated in trypsin (0.08%, 30 min at 37° C.) and dissociated mechanically (16). Hippocampal cells were resuspended in neurobasal medium supplemented with B27, anti-oxidants, 1 mM glutamine, 25 μM glutamate, 1 mM pyruvate. For outgrowth assays, cells were plated at a density of 3000 cells/well into 96 well dishes that had previously been coated with poly-D-lysine followed by 10% FCS and cultured for 48 hours.
The test compound was solubilised in DMSO and added to culture medium at time of cell plating at a dilution of 1:1000. Vehicle only (1:1000) was added to culture medium of untreated controls. Cells were fixed with 4% paraformaldehyde for 1 hour on ice, washed with PBS and stained using Coomassie. Assays were quantified using a KS300 image analysis system (Imaging Associates, UK). For each cell measured, the length from the edge of the cell to the end of the longest neurite was measured for 100 cells/well for each treatment in triplicate. All data are means and SEM pooled from three independent experiments. Results are expressed as a percentage of the length of neurites of cells treated with vehicle alone.

[1] = tested on: rat pheochromocytoma cells; settings: Schmidt, et al. (19); cited from earlier work
LXRβ protein = molecular target: T1, LXRβ protein (Homo sapiens, UniProt P55055); settings: 1 μM; over a background reading of 10000 fluorescence units; cited from earlier work
T1 sequence (P55055 1-460): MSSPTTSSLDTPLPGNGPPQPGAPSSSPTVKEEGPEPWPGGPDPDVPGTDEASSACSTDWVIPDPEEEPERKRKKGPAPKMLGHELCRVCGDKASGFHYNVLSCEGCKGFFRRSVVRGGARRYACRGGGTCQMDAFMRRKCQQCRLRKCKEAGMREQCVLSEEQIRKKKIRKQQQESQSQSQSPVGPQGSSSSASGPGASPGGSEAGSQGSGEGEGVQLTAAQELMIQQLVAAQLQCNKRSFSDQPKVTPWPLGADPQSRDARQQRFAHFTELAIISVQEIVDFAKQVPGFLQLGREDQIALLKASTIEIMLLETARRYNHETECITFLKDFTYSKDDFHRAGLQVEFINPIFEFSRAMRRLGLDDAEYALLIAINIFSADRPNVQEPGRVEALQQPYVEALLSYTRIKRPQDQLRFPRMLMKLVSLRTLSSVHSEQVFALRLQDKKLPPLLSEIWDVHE

SMILES | length of longest neurite, percentage of cells treated with vehicle alone (Hippocampal neurons; 0.3 μm test compound) | length of longest neurite, percentage of cells treated with vehicle alone (Hippocampal neurons; 1.0 μm test compound) | length of longest neurite, percentage of cells treated with vehicle alone (Hippocampal neurons; 3.0 μm test compound) | length of longest neurite, percentage of cells treated with vehicle alone (Hippocampal neurons; 10.0 μm test compound) | neuronal differentiation [1] | fluorescence reading (LXRβ protein) [fluorescence units]
CC(C)CC[C@@H](O)[C@@H](C)[C@H]1CC[C@H]2[C@@H]3CC=C4C[C@@H](O)CC[C@]4(C)[C@H]3CC[C@]12C [22(R) hydroxychol., 22(R)-hydroxycholesterol, reference compound] | 115.9 (6.02) % | 116 (7.45) % | 129.9 (4.12) % | 127.9 (6.18) % | induced neuronal differentiation | 
CCCCCCCCCCCCCCOc1ccc(C(=O)O)o1 [5-tetradecyloxy-2-furancarboxylic acid] |  |  |  |  | induced neuronal differentiation | 
C[C@H](CC[C@@H]1OC1(C)C)[C@H]1CC[C@H]2[C@@H]3CC=C4C[C@@H](O)CC[C@]4(C)[C@H]3CC[C@]12C [24(S), 25-epoxycholesterol] |  |  |  |  |  | 20000
